Active and inactive are the calls of the source.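 The calls were made as follows: active = fitted curve climbs past 10% caspase activation, relative to the positive control, at or below the top valid tested dose; inactive = the rest, including activity in the opposite direction.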
Tested on: not listed separately
Test: apoptosis induction in tBid-primed mouse fibroblasts – cell-based, MEF A1-2A-tBid, luminescence, dry powder, set 2, orthogonal assay for A1 inhibitor project, dose response (AID 504359)
Details: MEF A1-2A-tBid cells, caspase 3/7 luminescence, 3 h; at 35 µM (top of the series)
For `Cc1ccc(Nc2c([N+](=O)[O-])c(=O)oc3ccccc23)cc1`, the caspase activation was 1.44% (inactive).
In the case of `O=c1oc2ccccc2c(Cl)c1[N+](=O)[O-]`, the caspase activation is reported as -6.09% (inactive).
With `C/C1=C/C(=O)O[C@@H]2C[C@@H](CC[C@H](C)/C=C\CC1)O[C@@](O)(C1CSC(=O)N1)C2` (stereo partly specified) the caspase activation was 3.32% (inactive).
For `CCOC(=O)N1CCN(c2c([N+](=O)[O-])c(=O)n(C)c3ccccc23)CC1`, the caspase activation was -0.293% (inactive).
For `CCSc1c([N+](=O)[O-])c(=O)oc2ccccc12`, the caspase activation was -3.21% (inactive).
In the case of `Cn1c(=O)c([N+](=O)[O-])c(Nc2ccc(Cl)cc2)c2ccccc21`, the caspase activation is reported as -0.562% (inactive).
With `CN1C(=O)C(C)(C)N(Cc2ccccc2)c2ccccc21` the caspase activation was 0.072% (inactive).
In the case of `O=c1oc2ccccc2c(Sc2ccccc2)c1[N+](=O)[O-]`, the caspase activation is reported as -5.14% (inactive).
For `Cn1c(=O)c([N+](=O)[O-])c(Oc2ccccc2)c2ccccc21`, the caspase activation was 0.967% (inactive).
In the case of `CCOCCCNc1c([N+](=O)[O-])c(=O)n(C)c2ccccc12`, the caspase activation is reported as 0.513% (inactive).
With `Cc1ccc(Sc2c([N+](=O)[O-])c(=O)oc3ccccc23)cc1` the caspase activation was -3.75% (inactive).
In the case of `O=C(Oc1cccc(/C=N/Nc2nc(Nc3ccccc3)nc(N3CCOCC3)n2)c1)c1ccco1`, the caspase activation is reported as 3.43% (inactive).
In the case of `Cc1ccc(Sc2cc(=O)n(C)c3ccccc23)cc1`, the caspase activation is reported as -7.35% (inactive).
With `O=c1oc2ccccc2c(N2CCCCC2)c1[N+](=O)[O-]` the caspase activation was -2.24% (inactive).
With `Cc1ccc(Nc2c([N+](=O)[O-])c(=O)n(C)c3ccccc23)cc1` the caspase activation was -0.806% (inactive).
In the case of `O=c1oc2ccccc2c(Nc2cc(Cl)cc(Cl)c2)c1[N+](=O)[O-]`, the caspase activation is reported as -1.39% (inactive).

Tested on: MEF A1-2A-tBid cells, caspase 3/7 luminescence, 3 h
Test: as above
Details: not given
With `O=[N+]([O-])c1cnc2ccccc2c1Sc1ccccc1` the AC10 was 7.93 µM.
For `Cn1c(=O)c([N+](=O)[O-])c(-n2cnc3ccccc32)c2ccccc21`, the AC10 was 24.8 µM.
`Cc1ccc(Sc2c([N+](=O)[O-])cnc3ccccc23)cc1` showed an AC10 of 5.49 µM.
Work on `Cn1c(=O)c([N+](=O)[O-])c(Cl)c2ccccc21` yielded an AC10 of 0.716 µM.
`Cc1ccc(Sc2c([N+](=O)[O-])c(=O)n(C)c3ccccc23)cc1` showed an AC10 of 7.45 µM.
